Series [1] concerns the target T1, glutamate cysteine ligase (GCL, EC 6.3.2.2) (Homo sapiens, UniProt P48506).
T1 sequence (P48506 1-637): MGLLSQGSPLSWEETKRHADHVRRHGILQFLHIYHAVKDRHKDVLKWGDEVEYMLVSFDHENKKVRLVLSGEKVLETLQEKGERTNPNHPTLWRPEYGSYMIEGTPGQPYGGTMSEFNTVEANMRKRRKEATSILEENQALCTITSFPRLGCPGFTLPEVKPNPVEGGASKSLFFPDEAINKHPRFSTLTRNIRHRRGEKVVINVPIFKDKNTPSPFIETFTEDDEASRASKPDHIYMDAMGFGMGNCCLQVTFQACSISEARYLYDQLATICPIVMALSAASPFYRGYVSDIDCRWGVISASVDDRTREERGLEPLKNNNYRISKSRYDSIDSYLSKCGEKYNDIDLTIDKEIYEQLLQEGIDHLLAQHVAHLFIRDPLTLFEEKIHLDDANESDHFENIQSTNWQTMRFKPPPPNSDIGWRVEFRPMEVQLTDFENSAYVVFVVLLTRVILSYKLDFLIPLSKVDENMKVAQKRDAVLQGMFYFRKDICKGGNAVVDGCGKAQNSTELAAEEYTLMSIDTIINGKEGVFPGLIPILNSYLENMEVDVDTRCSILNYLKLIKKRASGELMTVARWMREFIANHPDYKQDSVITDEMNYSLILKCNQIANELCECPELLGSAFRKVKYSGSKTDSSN
T1 sequence (P48507 1-274 partner): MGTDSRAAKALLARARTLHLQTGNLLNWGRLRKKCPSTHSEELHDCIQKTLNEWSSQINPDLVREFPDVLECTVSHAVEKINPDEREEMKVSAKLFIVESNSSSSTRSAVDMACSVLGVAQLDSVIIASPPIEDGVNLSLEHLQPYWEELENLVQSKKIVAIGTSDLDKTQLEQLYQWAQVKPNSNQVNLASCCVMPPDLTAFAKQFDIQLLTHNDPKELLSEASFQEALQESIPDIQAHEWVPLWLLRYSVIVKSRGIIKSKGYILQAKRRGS
Conditions: read-out: Km of GCL for substrate; cited from earlier work.

The nature of series [2]: Cohesive strength of HBE airway mucus, peel tester. Conditions: 200 mM NACA and NAC, 20 mM DTT. Also on record: species or system human. Here is the method:
In the Example 1, the inventors assessed the ability of NACA to reduce the rheological properties of a concentrated (cystic fibrosis-like) mucus, making it more flowable. In this phase, NACA was compared to both a classical clinical reducing agent (N-acetylcysteine; NAC) as well as a potent laboratory reducing agent (Dithiothreitol; DTT). The studies in this phase of the project were performed at a single dose, 200 mM for the mono-thiols NACA and NAC and 20 mM for the di-thiol DTT.
Methods. In this study, a single preparation of human bronchial epithelial (HBE) airway mucus at 5.4% solids (i.e., wet-to-dry ratio) was utilized as the test mucus sample. This sample was thawed on ice and split into 4 separate groups. The appropriate amount of test agent (see above) was added to each mucus sample: (1) PBS (vehicle control), (2) NACA, (3) NAC, and (4) DTT. Samples were incubated for 60 minutes at 37ÀöC prior to analysis. Note, the final mucus concentration of each sample (after test agent addition) was ˜4.9% solids.
The viscoelastic (i.e., rheological) properties of each mucus preparation was made using a cone-and-plate rheometer (DH3; TA Instruments). For each study, 100 ? of sample was loaded onto the rheometer. Stress controlled sweeps (for viscous and elastic modulus determination) were performed over frequencies from 10-2-102 Hz. […]

Series [3] can be described thus: Rheology (elasticity, viscosity) of concentrated HBE airway mucus, cone-and-plate rheometer. Also on record: species or system human. The note with it: for elasticity compared with the DTT group / viscosity compared with the DTT group: 200 mM NACA and NAC versus 20 mM DTT, all p<0.05. Here is the method: In the Example 1, the inventors assessed the ability of NACA to reduce the rheological properties of a concentrated (cystic fibrosis-like) mucus, making it more flowable. In this phase, NACA was compared to both a classical clinical reducing agent (N-acetylcysteine; NAC) as well as a potent laboratory reducing agent (Dithiothreitol; DTT). The studies in this phase of the project were performed at a single dose, 200 mM for the mono-thiols NACA and NAC and 20 mM for the di-thiol DTT. Methods. In this study, a single preparation of human bronchial epithelial (HBE) airway mucus at 5.4% solids (i.e., wet-to-dry ratio) was utilized as the test mucus sample. This sample was thawed on ice and split into 4 separate groups. The appropriate amount of test agent (see above) was added to each mucus sample: (1) PBS (vehicle control), (2) NACA, (3) NAC, and (4) DTT. Samples were incubated for 60 minutes at 37ÀöC prior to analysis. Note, the final mucus concentration of each sample (after test agent addition) was ˜4.9% solids. The viscoelastic (i.e., rheological) properties of each mucus preparation was made using a cone-and-plate rheometer (DH3; TA Instruments). For each study, 100 ? of sample was loaded onto the rheometer. Stress controlled sweeps (for viscous and elastic modulus determination) were performed over frequencies from 10-2-102 Hz. To assess yield stress, creep-recovery studies were performed at stresses from 0.05 to 1.5 Pa. Next, the cohesive stress of each sample (i.e., how much force it takes to tear the mucus) was obtained using a peel tester (see Button et. al, PNAS 2018). Studies here were performed at a peel rate of 1 mm/sec.

For series [4] the following is noted: humans, oral dose of 600 mg; cited from earlier work.
The conditions of series [5]: normal airway surface, pH of 7.0-7.2; cited from earlier work.
The conditions of series [6]: maximum tolerated doses (20%); cited from earlier work.
For series [7] the following is noted: while intubated; cited from earlier work.
For series [8] the following is noted: oral, treatment periods of approximately 12-24 weeks, patients with chronic bronchitis; cited from earlier work.
In another series the test system is WT mice. Conditions: mouse, in vivo; cited from earlier work.
For series [9] the following is noted: cited from earlier work.
Another series concerns mucins. The note with it: 20 mM; cited from earlier work.

On to `N[C@@H](CS)C(=O)O` [cysteine, L-cysteine], for which the Michaelis constant (Km) (in general, the substrate concentration at which the rate is half of its maximum) in series [1] was 100 to 300 µM.
`CC(=O)N[C@@H](CS)C(N)=O`: in series [2] (peel rate 1 mm/sec), the “reduction of cohesive strength of mucus” value was “very effective”. Besides, in series [3], the “elasticity compared with the DTT group” value is reported as “significantly less than the DTT group” and the “viscosity compared with the DTT group” value is on record as “significantly less than the DTT group”. In [3] (200 mM dose), the “elasticity and viscosity, NACA compared with NAC” value is listed as “no significant difference”; the “reducing the viscoelasticity of mucus” value is recorded as “very effective”.
Take `CC(=O)N[C@@H](CS)C(=O)O` [NAC, N-acetyl-L-cysteine]: the “time after administration at which no NAC is detectable” value in [4] is 10 to 12 h. Further, in [5], the “fraction in the inactive protonated form” value is on record as 99%. For the same molecule, the “mucus reduction in CF subjects” value in series [6] is recorded as “did not produce mucus reduction”. Moreover, the “efficacy for atelectasis/mucus plugging” value in series [7] is listed as “ineffective”. In addition, in series [3], the “elasticity compared with the DTT group” value is on record as “significantly less than the DTT group” and the “viscosity compared with the DTT group” value is listed as “significantly less than the DTT group”. For the same molecule, in series [8], the “risk of adverse effects compared with placebo” value was “without increasing the risk of adverse effects”, the “risk of exacerbations compared with placebo” value was “reduces the risk of exacerbations” and the “symptoms compared with placebo” value was “improves symptoms”. In addition, the “airway toxicity in WT mice” value in the series with WT mice was “induced epithelial cell damage and acute neutrophilic responses”. For the same molecule, in [9] (high concentrations, delivered topically via bronchoscopy, subjects with CF or tracheostomies), the “removal of mucus plugs” value is “could remove mucus plugs”. Besides, the “lung function following inhalation treatment” value in series [9] (inhalation, high NAC concentrations (20%, 1,200 mOsm) aerosolized) was “modest improvements in lung function”.
`O[C@H](CS)[C@H](O)CS` (racemic) [DTT, Dithiothreitol]: the “cohesive strength, comparison between test agents” value in series [2] was “slightly better than NAC and NACA”. Also, the reduction of mucins result in the series with mucins is listed as “fully reduce mucins”.

B1: Dornasealfa: mucoactive agent reviewed for adults with acute lung conditions (protein, UniProt P24855 23-282, looked up)
Deoxyribonuclease-1: LKIAAFNIQTFGETKMSNATLVSYIVQILSRYDIALVQEVRDSHLTAVGKLLDNLNQDAPDTYHYVVSEPLGRNSYKERYLFVYRPDQVSAVDSYYYDDGCEPCGNDTFNREPAIVRFFSRFTEVREFAIVPLHAAPGDAVAEIDALYDVYLDVQEKWGLEDVMLMGDFNAGCSYVRPSQWSSIRLWTSPTFQWLIPDSADTTATPTHCAYDRIVVAGMLLRGAVVPDSALPFNFQAAYGLSDQLAQAISDHYPVEVMLK
For the molecule B1, in [7], the “efficacy for atelectasis/mucus plugging” value was “ineffective”.

These data come from patent publication US12245998B2 (NACUITY PHARMACEUTICALS, INC., priority 2019, dated 2025).
